Reference: patent US11319309B2, “Cyclohexyl acid isoxazole azines as LPA antagonists” (BRISTOL-MYERS SQUIBB COMPANY, priority 2017, dated 2022)

How the values were obtained:
human LPA1 = biological target: T1, human LPA1 (Homo sapiens, UniProt Q92633); test: LPA1 functional antagonist assay (calcium flux); type: cell-based; details: CHO cells overexpressing human LPA1; inhibition of calcium flux induced by 10 nM LPA; read-out: hLPA1 IC50
T1 construct: expressed in transfected cells; host or cells: Chinese hamster ovary (CHO) cells
T1 sequence (Q92633 whole entry): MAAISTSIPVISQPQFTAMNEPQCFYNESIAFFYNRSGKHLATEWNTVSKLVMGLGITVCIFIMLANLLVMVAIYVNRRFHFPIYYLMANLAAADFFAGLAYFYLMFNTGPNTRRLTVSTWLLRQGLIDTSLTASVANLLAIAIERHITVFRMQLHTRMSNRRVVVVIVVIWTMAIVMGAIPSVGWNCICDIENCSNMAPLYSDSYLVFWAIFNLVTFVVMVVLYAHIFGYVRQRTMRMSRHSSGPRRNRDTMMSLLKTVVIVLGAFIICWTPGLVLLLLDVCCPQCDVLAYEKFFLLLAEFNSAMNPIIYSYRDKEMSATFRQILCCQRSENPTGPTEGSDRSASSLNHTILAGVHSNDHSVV
Method: The effectiveness of compounds of the present invention as LPA1 inhibitors can be determined in an LPA1 functional antagonist assay as follows:
Chinese hamster ovary cells overexpressing human LPA1 were plated overnight (15,000 cells/well) in poly-D-lysine coated 384-well microplates (Greiner bio-one, Cat #781946) in DMEM/F12 medium (Gibco, Cat #11039). Following overnight culture, cells were loaded with calcium indicator dye (AAT Bioquest Inc, Cat #34601) for 30 minutes at 37° C. The cells were then equilibrated to room temperature for 30 minutes before the assay. Test compounds solubilized in DMSO were transferred to 384 well non-binding surface plates (Corning, Cat #3575) using the Labcyte Echo acoustic dispense and diluted with assay buffer [1X HBSS with calcium/magnesium (Gibco Cat #14025-092), 20 mM HEPES (Gibco Cat #15630-080) and 0.1% fatty acid free BSA (Sigma Cat # A9205)] to a final concentration of 0.5% DMSO. Diluted compounds were added to the cells by FDSS6000 (Hamamatsu) at final concentrations ranging from 0.08 nM to 5 μM. and were then incubated for 20 min at room temperature at which time LPA (Avanti Polar Lipids Cat #857130C) was added at final concentrations of 10 nM to stimulate the cells. The compound IC50 value was defined as the concentration of test compound which inhibited 50% of the calcium flux induced by LPA alone. IC50 values were determined by fitting data to a 4-parameter logistic equation (GraphPad Prism, San Diego Calif.).

IPF patients = details: 26-week clinical trial, IPF patients (Palmer et al., Chest 2018); cited from earlier work
nerve-injured mice = details: pretreatment, nerve-injured mice (Inoue et al. 2004); cited from earlier work
UUO mice = UUO mice treated with antagonist, compared with LPA1 (-/-) mice; cited from earlier work
[1] = test system: human foetal lung fibroblasts; details: induced by BAL obtained from IPF patients (Tager et al. 2008); cited from earlier work
[2] = test system: mouse epithelial renal cell line, MCT; details: MCT cells, co-treatment with LPA; cited from earlier work
[3] = test system: pancreatic cancer cell lines; details: cited from earlier work

Row | Compound | IC50 (human LPA1) [nM] | further results
1 | Cc1noc(-c2ccc(-c3ccc(C4(C(=O)O)CC4)cc3)cc2)c1NC(=O)O[C@H](C)c1ccccc1 [BMS-986020] | – | rate of FVC (forced vital capacity) decline (IPF patients): significantly reduce
2 | Cc1nc(-c2onc(C)c2CNc2ncnc(C(C)C)n2)ccc1O[C@H]1CCC[C@H](C(=O)O)C1 [Example 2, (1 S,3 S)-3-((6-(4-(((4-isopropyl-1,3,5-triazin-2-yl)amino)methyl)-3-methylisoxazol-5-yl)-2-methylpyridin-3-yl)oxy)cyclohexane-1-carboxylic Acid] | 43 | –
3 | Cc1noc(-c2ccc(O[C@H]3CCC[C@H](C(=O)O)C3)cn2)c1CNc1cc(-c2ccccc2)ccn1 [Example 5] | 21 | –
4 | Cc1noc(-c2ccc(O[C@H]3CCC[C@](F)(C(=O)O)C3)cn2)c1CNc1nccc(-c2ccccc2)n1 [Example 6] | 7.8 | –
5 | Cc1cc(-c2ccccc2)nc(NCc2c(C)noc2-c2ccc(O[C@H]3CCC[C@H](C(=O)O)C3)cn2)n1 [Example 8] | 16 | –
6 | Cc1cc(Oc2ccccc2)nc(NCc2c(C)noc2-c2ccc(O[C@H]3CCC[C@H](C(=O)O)C3)cn2)n1 [Example 9] | 20 | –
7 | Cc1noc(-c2ccc(O[C@H]3CCC[C@H](C(=O)O)C3)cn2)c1CNc1nccc(C2CC2)n1 [Example 10] | 18 | –
8 | Cc1cc(OC(C)C)nc(NCc2c(C)noc2-c2ccc(O[C@H]3CCC[C@H](C(=O)O)C3)cn2)n1 [Example 11] | 17 | –
9 | Cc1cc(N2CCCCC2)nc(NCc2c(C)noc2-c2ccc(O[C@H]3CCC[C@H](C(=O)O)C3)cn2)n1 [Example 12] | 1100 | –
10 | Cc1noc(-c2ccc(O[C@H]3CCC[C@H](C(=O)O)C3)cn2)c1CNc1nccc(-c2ccccn2)n1 [Example 13] | 32 | –
11 | Cc1nc(-c2onc(C)c2CNc2ncc(F)c(NC(C)C)n2)ccc1O[C@H]1CCC[C@H](C(=O)O)C1 [Example 18] | 88 | –
12 | Cc1nc(-c2onc(C)c2CNc2ncnc(C3CC3)n2)ccc1O[C@H]1CCC[C@H](C(=O)O)C1 [Example 19] | 76 | –
13 | Cc1noc(-c2ccc(O[C@H]3CCC[C@H](C(=O)O)C3)cn2)c1CNc1ncnc(C2CC2)n1 [Example 25] | 29 | –
14 | C[C@@H](N)[C@H]1CC[C@H](C(=O)Nc2ccncc2)CC1 [Example Y-27632] | – | allodynia and hyperalgesia (nerve-injured mice): completely abolished
15 | Cc1noc(-c2ccc(CSCCC(=O)O)cc2)c1NC(=O)OC(C)c1ccccc1Cl (stereo not shown) [Ki16425] | – | development of renal fibrosis (UUO mice): closely resembled the profile of LPA1 (−/−) mice; chemotaxis of human foetal lung fibroblasts [1]: blocked; induction of CTGF expression by LPA [2]: almost completely suppressed; LPA-induced and ascites-induced invasion activity ([3]; highly peritoneal metastatic pancreatic cancer cell line (Yamada et al. 2004)): blocked; in vitro migration in response to LPA and peritoneal fluid (ascites) ([3]; pancreatic cancer cell lines (Yamada et al. 2004)): effectively blocked

The next lines start with results.

Row | IC50 (human LPA1) [nM] | Compound | further results
16 | 209 | Cc1noc(-c2ccc(O[C@@H]3CCC[C@H](C(=O)O)C3)cc2)c1COc1nccc(-c2ccccc2)n1 (racemic) [Example 29, (±)-Cis-3-(4-(3-Methyl-4-(((4-phenylpyrimidin-2-yl)oxy)methyl)isoxazol-5-yl)phenoxy)cyclo-hexanecarboxylic Acid] | –
17 | 47 | Cc1noc(-c2ccc(O[C@@H]3CCC[C@@H](C(=O)O)C3)cc2)c1COc1nccc(-c2ccccc2)n1 (racemic) [Example 30, (±)-Trans-3-(4-(3-methyl-4-(((4-phenylpyrimidin-2-yl)oxy)methyl)isoxazol-5-yl)phenoxy)cyclohexanecarboxylic Acid] | –
18 | 14 | Cc1noc(-c2ccc(O[C@H]3CCC[C@H](C(=O)O)C3)cn2)c1CNc1nccc(-c2ccccc2)n1 [Example 1, (1S,3S)-3-((6-(3-methyl-4-(((4-phenylpyrimidin-2-yl)amino)methyl)isoxazol-5-yl)pyridin-3-yl)oxy) cyclohexane-1-carboxylic Acid] | –
19 | 18 | Cc1noc(-c2ccc(O[C@H]3CCC[C@H](C(=O)O)C3)cn2)c1CNc1nccc(-c2ccccc2)n1 [Example 3] | –
20 | 39 | Cc1noc(-c2ccc(O[C@H]3CCC[C@@H](C(=O)O)C3)cn2)c1CNc1nccc(-c2ccccc2)n1 [Example 4] | –
21 | 6 | Cc1noc(-c2ccc(O[C@H]3CCC[C@H](C(=O)O)C3)cn2)c1CNc1nccc(Oc2ccccc2)n1 [Example 7] | –
22 | 64 | Cc1nc(-c2onc(C)c2CNc2nccc(-c3ccccn3)n2)ccc1O[C@H]1CCC[C@H](C(=O)O)C1 [Example 14] | –
23 | 4.9 | Cc1cnc(NCc2c(C)noc2-c2ccc(O[C@H]3CCC[C@H](C(=O)O)C3)cn2)nc1-c1ccccc1 [Example 15] | –
24 | 14 | Cc1noc(-c2ccc(O[C@H]3CCC[C@@H](C(=O)O)C3)cn2)c1CNc1nccc(-c2ccccc2)n1 [Example 16] | –
25 | 26 | CCOc1ccnc(NCc2c(C)noc2-c2ccc(O[C@H]3CCC[C@H](C(=O)O)C3)c(C)n2)n1 [Example 17, (1S,3S)-3-((6-(4-(((4-Ethoxypyrimidin-2-yl)amino)methyl)-3-methylisoxazol-5-yl)-2-methylpyridin-3-yl)oxy)cyclohexane-1-carboxylic Acid] | –
26 | 64 | Cc1nc(-c2onc(C)c2CNc2ncnc(C3CCC3)n2)ccc1O[C@H]1CCC[C@H](C(=O)O)C1 [Example 20] | –
27 | 60 | Cc1nc(-c2onc(C)c2CNc2ncnc(C3CCCC3)n2)ccc1O[C@H]1CCC[C@H](C(=O)O)C1 [Example 21] | –
28 | 47 | Cc1noc(-c2ccc(O[C@@H]3CCC[C@@H](C(=O)O)C3)cc2)c1CNc1nccc(-c2ccccc2)n1 [Example 22] | –
29 | 14 | CCOc1ccnc(NCc2c(C)noc2-c2ccc(O[C@H]3CCC[C@H](C(=O)O)C3)cn2)n1 [Example 23] | –
30 | 32 | Cc1noc(-c2ccc(O[C@H]3CCC[C@H](C(=O)O)C3)cn2)c1CNc1ncc(F)c(NC(C)C)n1 [Example 24] | –
31 | 38 | Cc1noc(-c2ccc(O[C@H]3CCC[C@H](C(=O)O)C3)cn2)c1CNc1ncnc(C(C)C)n1 [Example 26] | –
32 | 33 | Cc1noc(-c2ccc(O[C@H]3CCC[C@H](C(=O)O)C3)cn2)c1CNc1ncnc(C2CCC2)n1 [Example 27] | –
33 | 24 | Cc1noc(-c2ccc(O[C@H]3CCC[C@H](C(=O)O)C3)cn2)c1CNc1ncnc(C2CCCC2)n1 [Example 28] | –
